According to patent US20260258084A1, “New Peptides as Selective IL-23 Receptor Antagonists” (Sanofi, priority 2022, published 2026):
Starred links: 1 amine or outer side, 2 acyl side, 3 side chain; linkers in the order of their positions; H or OH if unused. Positions of bridges follow the written chain, without caps; N, C: chain ends. Non-standard residues stand in square brackets, D forms with d. Residues, ends and D or L forms follow the SMILES beside them. *: point of attachment. X5 = CN(C(=O)CCC(=O)[*:3])[C@@H](CS[*:2])C(=O)[*:1]; X6 = O=C(CCC(=O)[*:3])N[C@@H](CS[*:2])C(=O)[*:1]; Trp(7-Me) = Cc1cccc2c(C[C@H](N)C(=O)O)c[nH]c12; X1 = O=C(CCCCN[*:3])N[C@@H](CS[*:2])C(=O)[*:1]; Trp(1-Me) = Cn1cc(C[C@H](N)C(=O)O)c2ccccc21; αMeLys(Me2) = CN(C)CCCC[C@](C)(N)C(=O)O; 2Nal = N[C@@H](Cc1ccc2ccccc2c1)C(=O)O; Palmitoyl = CCCCCCCCCCCCCCCC(=O)*; 3Pal = N[C@@H](Cc1cccnc1)C(=O)O; Lys(Me) = CNCCCC[C@H](N)C(=O)O; αMeL = CC(C)C[C@](C)(N)C(=O)O; Suc = O=C(CCC(=O)[*:2])[*:1]; αMeK = C[C@](N)(CCCCN)C(=O)O; Thp = NC1(C(=O)O)CCOCC1; Me2NCH2CH2 = CN(C)CC*; Aib = CC(C)(N)C(=O)O; Ava = NCCCCC(=O)O; Sar = CNCC(=O)O

Tests used:
[1] = molecular target: T1, human interleukin-23 receptor (recombinant human IL-23R-Fc chimera) (Homo sapiens, UniProt Q5VWK5); experiment: Human ELISA IL23/IL23R (assay for specific human IL23R antagonists); assay type: binding; details: Table 10; read-out: Human ELISA IL23/IL23R IC50
T1 construct: Fc (IgG Fc fusion)
Outline: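 Competition format: peptide dilutions compete for IL23R-Fc chimera (0.1 μg/ml final, 60 min, room temperature) binding to immobilized human IL23 coated at […] overnight at 4 °C. Read-out is fluorogenic HRP signal from goat anti-hu-IgG1 detecting captured receptor.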

Pancreatin = experiment: Protease stability in simulated intestinal fluid (Pancreatin-SIF, FaSSIF); assay type: in vitro ADME; details: 1 μM peptide, 37° C.; for remaining at 1 h, 1 µM: 60 min, read-out: FaSSIF 60 (min), remaining percent of peptide; for remaining at 2 h, 1 µM: 120 min, read-out: FaSSIF 120 (min), remaining percent of peptide; for remaining at 4 h, 1 µM: 240 min, read-out: FaSSIF 240 (min), remaining percent of peptide
Method: (§1) Studies were carried out in simulated intestinal fluid (SIF) and simulated gastric fluid (SGF) to evaluate gastric stability of the peptide compounds disclosed herein.
Similarly, the term “Pancreatin-SIF” refers to a solution of simulated intestinal fluid containing pancreatin whereas “SIF-media” refers to a solution of simulated intestinal fluid without pancreatin.
Pancreatin-SIF was prepared by dissolving 1 mg Pancreatin (MP Biomedicals) in 10 mL SIF media concentrate (ProSense).
(§2) Peptides were first dissolved at 1 mM stock concentration in 0.01 HCl (+/−10% of DMSO) and were than diluted further with water to a stock concentration of 20 μM. Final peptide concentration in the incubation was 1 μM.
(§3) To 76 μL of the Pepsin-SGF buffer, 4 μL of the 20 µM peptide stock solution was added and incubated at 37° C. At each timepoint (0, 60, 120 and 240 minutes) the reaction was quenched with addition of 80 μL Ethanol (0.1% HCOOH). The samples were centrifuged for 20 minutes and an aliquot of the supernatant 100 μL were transferred to a LoBind-MTP plate and analyzed by LCMS/MS. The peak area response was calculated at each time point for each test compound. As internal reference, the peak area response of the same test compound at TO was calculated. The percent remaining at each timepoint was calculated based on the peak area response ratio of the test compound at TO. Time 0 was set to 100%, and all later timepoints were calculated relative to time 0.

Pepsin = tested on: T2, Pepsin; experiment: Protease stability in simulated gastric fluid (Pepsin-SGF, FaSSGF); assay type: in vitro ADME; details: simulated gastric fluid with pepsin (Pepsin-SGF), 60 min, 1 μM peptide, 37° C., read-out: FaSSGF 60 (min), remaining percent of peptide
T2 construct: purchased Merck Millipore
Method: as §1
For clarification the term “Pepsin-SGF” refers to a solution of simulated gastric fluid containing pepsin whereas “SGF media” refers to a solution of simulated gastric fluid without pepsin. Pepsin-SGF was prepared by dissolving 320 mg Pepsin (Merck Millipore) in 100 mL SGF media concentrate (ProSense).
as §2
as §3, with “μM” for “µM”

[2] = tested on: IL-23 induced STAT3 signaling in HEK-Blue™ IL-23 cells; experiment: IL-23 induced STAT3 signaling in HEK-Blue IL-23 cells (SEAP reporter); assay type: cell-based; details: human IL23 0.25 ng/ml, read-out: pSTAT3
Outline: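 Secreted SEAP, read at OD 620-655 nm after 45 min QUANTI-Blue development, reports STAT3 activation. Beforehand, cells were exposed to peptide dilutions for 60 min at 37 °C and then to 0.25 ng/ml final human IL-23 overnight, at 10,000 cells/well.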

| SMILES | IC50 [1] [nM] | remaining at 1 h, 1 µM (Pancreatin) [%] | remaining at 2 h, 1 µM (Pancreatin) [%] | remaining at 4 h, 1 µM (Pancreatin) [%] | remaining at 1 h, 1 µM (Pepsin) [%] | IC50 [2] [nM] |
| --- | --- | --- | --- | --- | --- | --- |
| CC(=O)NCCCC[C@@H]1NC(=O)[C@H](Cc2c[nH]c3c(C)cccc23)NC(=O)[C@@H](NC(C)=O)CCCCNC(=O)[C@@H]2CSSC[C@H](NC1=O)C(=O)N[C@@H](Cc1ccc(OCCN(C)C)cc1)C(=O)N[C@@H](Cc1ccc3ccccc3c1)C(=O)N[C@@](C)(CC(C)C)C(=O)N[C@H](C(=O)N[C@@H](CC(N)=O)C(=O)N[C@@H](Cc1cccnc1)C(=O)N(C)CC(N)=O)CCCCNC(=O)CCC(=O)N2 [compound 106] (Ac-K[Trp(7-Me)]K(Ac)CY(Me2NCH2CH2)[2Nal][αMeL]KN[3Pal][Sar]-NH2; linker 1-4-8 via X6) | 0.65 | 76 | 76 | 74 | 90 | 0.13 |
| CC(=O)NCCCC[C@@H]1NC(=O)[C@H](Cc2c[nH]c3c(C)cccc23)NC(=O)[C@H]([C@@H](C)O)NC(=O)[C@H](CC(N)=O)NC(=O)[C@@H]2CSSC[C@H](NC1=O)C(=O)N[C@@H](Cc1ccc(OCCN(C)C)cc1)C(=O)N[C@@H](Cc1ccc3ccccc3c1)C(=O)N[C@@](C)(CCCCN(C)C)C(=O)N[C@H](C(=O)N[C@@H](CC(N)=O)C(=O)N[C@@H](Cc1cccnc1)C(=O)N(C)CC(N)=O)CCCCN(C)C(=O)CCC(=O)N2 [compound 156] (CNT[Trp(7-Me)]K(Ac)CY(Me2NCH2CH2)[2Nal][αMeLys(Me2)][Lys(Me)]N[3Pal][Sar]-NH2; disulfide 1-6; linker N-10 via Suc) | 0.61 | 99 | 99 | 97 | 100 | 0.08 |
| C[C@@H](O)[C@@H]1NC(=O)[C@H](CC(N)=O)NC(=O)[C@@H]2CSSC[C@H](NC(=O)[C@H](CCC(N)=O)NC(=O)[C@H](Cc3c[nH]c4ccccc34)NC1=O)C(=O)N[C@@H](Cc1ccc(OCCN(C)C)cc1)C(=O)N[C@@H](Cc1ccc3ccccc3c1)C(=O)NC1(CCOCC1)C(=O)N[C@H](C(=O)N[C@@H](CC(N)=O)C(=O)N[C@@H](CC(N)=O)C(N)=O)CCC(=O)NCCCCC(=O)N2 [compound 26] ([Ava]CNTWQCY(Me2NCH2CH2)[2Nal][Thp]ENN-NH2; disulfide 2-7; lactam N-11) | 0.29 | 95 | 95 | 94 | 95 | 3.37 |
| CC(=O)N[C@H]1CCCCNC(=O)[C@@H]2CSSC[C@H](NC(=O)[C@H](CC(C)C)NC(=O)[C@H](Cc3c[nH]c4c(C)cccc34)NC1=O)C(=O)N[C@@H](Cc1ccc(OCCN(C)C)cc1)C(=O)N[C@@H](Cc1ccc3ccccc3c1)C(=O)N[C@@](C)(CC(C)C)C(=O)N[C@H](C(=O)N[C@@H](C)C(=O)N[C@@H](Cc1cccnc1)C(=O)N(C)CC(N)=O)CCCCN(C)C(=O)CCC(=O)N2C [compound 70] (Ac-K[Trp(7-Me)]LCY(Me2NCH2CH2)[2Nal][αMeL][Lys(Me)]A[3Pal][Sar]-NH2; linker 1-4-8 via X5) | 2.07 | 94 | 90 | 87 | 78 | 3.94 |
| CC(=O)N[C@H]1CCCCNC(=O)[C@@H]2CSSC[C@H](NC(=O)[C@H](CC(C)C)NC(=O)[C@H](Cc3c[nH]c4c(C)cccc34)NC1=O)C(=O)N[C@@H](Cc1ccc(OCCN(C)C)cc1)C(=O)N[C@@H](Cc1ccc3ccccc3c1)C(=O)N[C@@](C)(CC(C)C)C(=O)N[C@H](C(=O)N[C@@H](CC(N)=O)C(=O)N[C@@H](Cc1cccnc1)C(=O)N(C)CC(N)=O)CCCCNC(=O)CCC(=O)N2 [compound 158] (Ac-K[Trp(7-Me)]LCY(Me2NCH2CH2)[2Nal][αMeL]KN[3Pal][Sar]-NH2; linker 1-4-8 via X6) | 1.93 | 80 | 73 | 74 | 37 | 0.39 |
| CCCCCCCCCCCCCCCC(=O)NCCCC[C@]1(C)NC(=O)[C@H](Cc2ccc3ccccc3c2)NC(=O)[C@H](Cc2ccc(OCCN(C)C)cc2)NC(=O)[C@@H]2CSSC[C@H](NC(=O)CCCCNC(=O)CC[C@@H](C(=O)N[C@@H](CC(N)=O)C(=O)N[C@@H](Cc3cccnc3)C(=O)N(C)CC(N)=O)NC1=O)C(=O)NCCCC[C@H](NC(C)=O)C(=O)N[C@@H](Cc1c[nH]c3c(C)cccc13)C(=O)N[C@@H](CCCCNC(C)=O)C(=O)N2 [compound 67] (Ac-K[Trp(7-Me)]K(Ac)CY(Me2NCH2CH2)[2Nal][αMeK](Palmitoyl)EN[3Pal][Sar]-NH2; linker 1-4-8 via X1) | 2.27 | 99 | 98 | 98 | 102 | 22.6 |
| CC(=O)NCCCC[C@@H]1NC(=O)[C@H](Cc2c[nH]c3c(C)cccc23)NC(=O)[C@@H](NC(C)=O)CCCCNC(=O)[C@@H]2CSSC[C@H](NC1=O)C(=O)N[C@@H](Cc1ccc(OCCN(C)C)cc1)C(=O)N[C@@H](Cc1ccc3ccccc3c1)C(=O)N[C@@](C)(CC(C)C)C(=O)N[C@H](C(=O)N[C@@H](CC(N)=O)C(=O)N[C@@H](Cc1cccnc1)C(=O)N(C)CC(N)=O)CCC(=O)NCCCCC(=O)N2 [compound 73] (Ac-K[Trp(7-Me)]K(Ac)CY(Me2NCH2CH2)[2Nal][αMeL]EN[3Pal][Sar]-NH2; linker 1-4-8 via X1) | 0.58 | 82 | 81 | 77 | 87 | 0.1 |
| CC(=O)NCCCC[C@@H]1NC(=O)[C@H](Cc2cn(C)c3ccccc23)NC(=O)[C@@H](NC(C)=O)CCCCNC(=O)[C@@H]2CSSC[C@H](NC1=O)C(=O)N[C@@H](Cc1ccc(OCCN(C)C)cc1)C(=O)N[C@@H](Cc1ccc3ccccc3c1)C(=O)NC1(CCOCC1)C(=O)N[C@H](C(=O)N[C@@H](CC(N)=O)C(=O)N[C@@H](Cc1cccnc1)C(=O)N(C)CC(N)=O)CCC(=O)NCCCCC(=O)N2 [compound 126] (Ac-K[Trp(1-Me)]K(Ac)CY(Me2NCH2CH2)[2Nal][Thp]EN[3Pal][Sar]-NH2; linker 1-4-8 via X1) | 0.56 | 90 | 87 | 83 | 80 | 0.11 |
| Cc1cccc2c(C[C@@H]3NC(=O)[C@H]([C@@H](C)O)NC(=O)[C@H](CC(N)=O)NC(=O)[C@@H]4CSSC[C@H](NC(=O)[C@H](CCC(N)=O)NC3=O)C(=O)N[C@@H](Cc3ccc(OCCN(C)C)cc3)C(=O)N[C@@H](Cc3ccc5ccccc5c3)C(=O)NC(C)(C)C(=O)N[C@H](C(=O)N[C@@H](CC(N)=O)C(=O)N[C@@H](Cc3c[nH]cn3)C(N)=O)CCC(=O)NCCCCC(=O)N4)c[nH]c12 [compound 52] ([Ava]CNT[Trp(7-Me)]QCY(Me2NCH2CH2)[2Nal][Aib]ENH-NH2; disulfide 2-7; lactam N-11) | 0.5 | 81 | 76 | 65 | 102 | 1.25 |
